We go through 18 molecules from ChEMBL document CHEMBL1152042, “Polyhydroxylated 3-(N-phenyl) carbamoyl-2-iminochromene derivatives as potent inhibitors of tyrosine kinase p60c-src” (Bioorg Med Chem Lett, 1995).

SMILES strings stand for the structures.

Experiment [1] concerns the target Tyrosine-protein kinase Lyn (Homo sapiens, UniProt P07948). The experiment is described as follows: Inhibitory activity against p56 Lyn tyrosine kinase.
The target in experiment [2] is Tyrosine-protein kinase Fyn (Homo sapiens, UniProt P06241). The experiment is described as follows: Inhibitory activity against p55 Fyn tyrosine kinase.
Experiment [3] deals with Tyrosine-protein kinase Lck (Homo sapiens, UniProt P06239). Briefly: Inhibitory activity against p56 Lck tyrosine kinase.
The target in experiment [4] is Proto-oncogene tyrosine-protein kinase Src (Homo sapiens, UniProt P12931). The experiment is described as follows: Inhibitory activity against p60 c-Src tyrosine kinase.
Chain of Proto-oncogene tyrosine-protein kinase Src (P12931 2-536 limits assumed): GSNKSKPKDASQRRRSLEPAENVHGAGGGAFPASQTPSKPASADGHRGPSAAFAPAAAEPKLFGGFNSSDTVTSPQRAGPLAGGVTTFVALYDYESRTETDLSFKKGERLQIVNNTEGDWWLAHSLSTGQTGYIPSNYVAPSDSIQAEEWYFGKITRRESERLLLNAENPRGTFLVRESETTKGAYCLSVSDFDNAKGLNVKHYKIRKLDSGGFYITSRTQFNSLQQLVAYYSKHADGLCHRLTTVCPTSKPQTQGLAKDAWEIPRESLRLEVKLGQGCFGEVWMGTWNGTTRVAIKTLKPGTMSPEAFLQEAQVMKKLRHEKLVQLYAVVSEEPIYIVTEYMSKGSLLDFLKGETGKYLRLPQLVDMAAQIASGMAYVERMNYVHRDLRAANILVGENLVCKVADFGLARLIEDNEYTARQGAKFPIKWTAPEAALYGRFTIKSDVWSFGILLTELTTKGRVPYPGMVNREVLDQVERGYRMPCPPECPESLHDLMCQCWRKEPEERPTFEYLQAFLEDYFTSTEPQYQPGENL

Chain of Tyrosine-protein kinase Fyn (P06241 whole entry): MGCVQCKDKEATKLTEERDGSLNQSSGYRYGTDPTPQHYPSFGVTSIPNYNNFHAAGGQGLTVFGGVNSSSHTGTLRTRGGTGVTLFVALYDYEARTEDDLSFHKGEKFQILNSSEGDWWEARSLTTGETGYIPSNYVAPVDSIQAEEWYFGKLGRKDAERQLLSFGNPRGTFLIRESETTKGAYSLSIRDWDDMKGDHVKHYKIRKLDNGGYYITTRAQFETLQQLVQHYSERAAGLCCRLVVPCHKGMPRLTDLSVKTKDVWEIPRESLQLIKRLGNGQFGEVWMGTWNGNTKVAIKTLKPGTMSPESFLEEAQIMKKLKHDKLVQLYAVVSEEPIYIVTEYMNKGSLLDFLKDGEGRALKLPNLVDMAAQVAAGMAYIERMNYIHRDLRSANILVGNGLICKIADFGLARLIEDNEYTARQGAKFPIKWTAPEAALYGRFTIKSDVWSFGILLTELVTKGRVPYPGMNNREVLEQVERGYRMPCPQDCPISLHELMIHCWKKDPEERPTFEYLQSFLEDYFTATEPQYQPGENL
Chain of Tyrosine-protein kinase Lyn (P07948 whole entry): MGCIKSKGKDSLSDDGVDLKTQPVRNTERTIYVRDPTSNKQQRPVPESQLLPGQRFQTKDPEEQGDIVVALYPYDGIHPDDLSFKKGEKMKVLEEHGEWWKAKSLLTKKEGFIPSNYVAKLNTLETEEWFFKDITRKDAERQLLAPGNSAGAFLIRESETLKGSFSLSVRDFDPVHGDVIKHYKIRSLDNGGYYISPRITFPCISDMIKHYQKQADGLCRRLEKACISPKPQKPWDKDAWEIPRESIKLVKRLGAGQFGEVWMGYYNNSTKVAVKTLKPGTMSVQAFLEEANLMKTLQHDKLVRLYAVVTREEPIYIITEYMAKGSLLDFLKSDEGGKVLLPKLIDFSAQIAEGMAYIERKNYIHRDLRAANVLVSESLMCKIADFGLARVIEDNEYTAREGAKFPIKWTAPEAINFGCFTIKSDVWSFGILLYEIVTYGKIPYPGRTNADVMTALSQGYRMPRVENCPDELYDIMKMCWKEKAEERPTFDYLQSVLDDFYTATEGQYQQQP
Chain of Tyrosine-protein kinase Lck (P06239 whole entry): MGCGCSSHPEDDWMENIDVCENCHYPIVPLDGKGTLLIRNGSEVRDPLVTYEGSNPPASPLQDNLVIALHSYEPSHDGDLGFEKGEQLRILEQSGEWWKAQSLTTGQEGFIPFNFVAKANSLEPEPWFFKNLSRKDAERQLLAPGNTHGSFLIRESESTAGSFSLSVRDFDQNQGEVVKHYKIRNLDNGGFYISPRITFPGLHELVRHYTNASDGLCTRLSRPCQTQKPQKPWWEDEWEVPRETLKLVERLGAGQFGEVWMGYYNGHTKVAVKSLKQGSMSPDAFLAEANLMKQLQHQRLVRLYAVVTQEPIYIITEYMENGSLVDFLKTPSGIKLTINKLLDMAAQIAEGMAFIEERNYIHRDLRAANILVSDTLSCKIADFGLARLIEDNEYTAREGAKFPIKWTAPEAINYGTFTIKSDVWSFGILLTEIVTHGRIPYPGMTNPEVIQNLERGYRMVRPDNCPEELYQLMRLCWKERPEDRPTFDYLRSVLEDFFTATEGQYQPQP

Turning to `N=c1oc2c(O)c(O)ccc2cc1C(=O)Nc1ccc(O)cc1`, the IC50 in experiment [1] and in experiment [2] was more than 64 µM in each case. The molecule `N=c1oc2cc(O)ccc2cc1C(=O)Nc1cccc(O)c1` came in with an IC50 in experiment [3] of more than 33.8 µM.

`N=c1oc2ccc(O)cc2cc1C(=O)Nc1cccc(O)c1` had an IC50 in experiment [3] of more than 33.8 µM. Turning to `N=c1oc2c(O)cccc2cc1C(=O)Nc1cccc(CO)c1`, the IC50 in experiment [1] was 64.5 µM; in experiment [2], 9.67 µM. `N=c1oc2ccc(O)cc2cc1C(=O)Nc1ccc(O)cc1`: the 50% inhibitory concentration (IC50) in experiment [3] was more than 33.8 µM.

On to `N=c1oc2c(O)c(O)ccc2cc1C(=O)Nc1cccc(CO)c1`, for which the 50% inhibitory concentration (IC50) in experiment [2] and in experiment [3] was more than 61.3 µM each time. Turning to `N=c1oc2c(O)c(O)ccc2cc1C(=O)Nc1cccc(O)c1`, the IC50 in experiment [2] was more than 64 µM. Turning to `N=c1oc2ccccc2cc1C(=O)Nc1ccc(O)cc1`, the IC50 in experiment [4] was more than 71.4 µM.

For the molecule `COc1ccc2cc(C(=O)Nc3ccc(O)cc3)c(=N)oc2c1`, the IC50 in experiment [4] and in experiment [3] was more than 32.2 µM throughout. Regarding `N=c1oc2c(O)c(O)ccc2cc1C(=O)Nc1ccccc1O`, the IC50 in experiment [1] and in experiment [2] was more than 64 µM each time.

Consider `N=c1oc2c(O)c(O)ccc2cc1C(=O)Nc1ccccc1CO`, for which the half-inhibitory concentration (IC50) in experiment [1] and in experiment [2] was more than 61.3 µM throughout. For `N=c1oc2cc(O)ccc2cc1C(=O)Nc1ccc(O)cc1`, the concentration for half-maximal inhibition (IC50) in experiment [3] was more than 33.8 µM. In the case of `N=c1oc2c(O)c(O)ccc2cc1C(=O)Nc1ccccc1`, the half-maximal inhibitory concentration (IC50) in experiment [1], in experiment [2], in experiment [4] and in experiment [3] was more than 67.5 µM each time. In turn, `N=c1oc2c(O)cccc2cc1C(=O)Nc1ccc(O)cc1` gave an IC50 in experiment [2] of more than 67.5 µM. On to `N=c1oc2c(O)cccc2cc1C(=O)Nc1cccc(O)c1`, for which the concentration for half-maximal inhibition (IC50) in experiment [1] was less than 33.8 µM. Still for that read-out and setting: the figure for `N=c1oc2cc(O)cc(O)c2cc1C(=O)Nc1ccccc1O` is more than 16 µM.

For the molecule `N=c1oc2c(O)cccc2cc1C(=O)Nc1ccccc1O`, the IC50 in experiment [1] is more than 67.5 µM; in experiment [2], more than 67.5 µM; in experiment [4], more than 33.8 µM. `N=c1oc2ccccc2cc1C(=O)Nc1ccccc1O` had a half-maximal inhibitory concentration (IC50) in experiment [4] of more than 71.4 µM.

The term IC50 denotes the concentration at which inhibition is half-maximal.
